Holding throughout (assay): SILAC proteomics / in-gel fluorescence, competition of probe 13-t labeling by 3a
In assay [1] the target is proteins of HEK293T cells transiently overexpressing caspase-6 (Homo sapiens, UniProt P35998). The settings on record: Comp; protein PSMC2 P35998.
In assay [2] the target is proteins of HEK293T cells transiently overexpressing caspase-6 (Homo sapiens, UniProt Q13148). The settings on record: Comp; protein TARDBP Q13148.
Assay [3] concerns the target T1, proteins of HEK293T cells transiently overexpressing caspase-6 (Homo sapiens, UniProt P25789).
T1 sequence (P25789 1-261): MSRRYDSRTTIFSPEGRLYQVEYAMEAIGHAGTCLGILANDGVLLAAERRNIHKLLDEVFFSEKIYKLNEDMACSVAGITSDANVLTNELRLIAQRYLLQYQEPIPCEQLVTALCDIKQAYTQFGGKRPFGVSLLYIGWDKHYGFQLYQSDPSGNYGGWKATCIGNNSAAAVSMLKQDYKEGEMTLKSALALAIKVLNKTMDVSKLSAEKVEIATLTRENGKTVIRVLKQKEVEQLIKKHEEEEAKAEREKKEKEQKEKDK

For assay [4], the target named is proteins of HEK293T cells transiently overexpressing caspase-6 (Homo sapiens, UniProt P63104). The settings on record: Comp; protein YWHAZ P63104.
Sequence of proteins of HEK293T cells transiently overexpressing caspase-6 (Homo sapiens, UniProt P63104) (P63104 whole entry): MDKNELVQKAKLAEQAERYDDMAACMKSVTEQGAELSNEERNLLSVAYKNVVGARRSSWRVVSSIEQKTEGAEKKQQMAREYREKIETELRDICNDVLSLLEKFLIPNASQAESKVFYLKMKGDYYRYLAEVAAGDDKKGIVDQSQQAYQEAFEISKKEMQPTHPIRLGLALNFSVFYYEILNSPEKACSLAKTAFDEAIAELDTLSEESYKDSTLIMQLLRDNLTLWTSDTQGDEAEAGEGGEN
Assay [5] addresses proteins of HEK293T cells transiently overexpressing caspase-6 (Homo sapiens, UniProt P09874). Particulars: Comp; protein PARP1 P09874.
In assay [6] the target is proteins of HEK293T cells transiently overexpressing caspase-6 (Homo sapiens, UniProt P39023). The settings on record: Comp; protein RPL3 P39023.
In assay [7] the target is proteins of HEK293T cells transiently overexpressing caspase-6 (Homo sapiens, UniProt P62906). Particulars: Comp; protein RPL10A P62906.
Assay [8] addresses T2, proteins of HEK293T cells transiently overexpressing caspase-6 (Homo sapiens, UniProt P08243).
T2 sequence (P08243 1-561): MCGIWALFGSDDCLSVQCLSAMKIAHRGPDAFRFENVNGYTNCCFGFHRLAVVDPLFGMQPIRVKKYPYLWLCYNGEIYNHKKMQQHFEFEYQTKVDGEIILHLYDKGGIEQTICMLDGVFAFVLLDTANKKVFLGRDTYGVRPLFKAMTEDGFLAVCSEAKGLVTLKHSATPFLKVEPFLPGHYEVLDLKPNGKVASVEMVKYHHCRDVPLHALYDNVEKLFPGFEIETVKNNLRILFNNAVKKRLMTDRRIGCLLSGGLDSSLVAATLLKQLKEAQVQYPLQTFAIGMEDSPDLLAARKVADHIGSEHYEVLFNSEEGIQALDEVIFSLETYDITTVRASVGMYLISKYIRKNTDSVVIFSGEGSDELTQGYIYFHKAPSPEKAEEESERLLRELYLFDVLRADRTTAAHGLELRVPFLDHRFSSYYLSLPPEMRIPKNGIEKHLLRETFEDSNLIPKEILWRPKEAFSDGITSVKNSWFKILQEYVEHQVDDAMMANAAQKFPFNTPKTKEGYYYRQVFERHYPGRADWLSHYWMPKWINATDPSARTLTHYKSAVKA

The target in assay [9] is T3, proteins of HEK293T cells transiently overexpressing caspase-6 (Homo sapiens, UniProt O60506).
T3 sequence (O60506 1-623): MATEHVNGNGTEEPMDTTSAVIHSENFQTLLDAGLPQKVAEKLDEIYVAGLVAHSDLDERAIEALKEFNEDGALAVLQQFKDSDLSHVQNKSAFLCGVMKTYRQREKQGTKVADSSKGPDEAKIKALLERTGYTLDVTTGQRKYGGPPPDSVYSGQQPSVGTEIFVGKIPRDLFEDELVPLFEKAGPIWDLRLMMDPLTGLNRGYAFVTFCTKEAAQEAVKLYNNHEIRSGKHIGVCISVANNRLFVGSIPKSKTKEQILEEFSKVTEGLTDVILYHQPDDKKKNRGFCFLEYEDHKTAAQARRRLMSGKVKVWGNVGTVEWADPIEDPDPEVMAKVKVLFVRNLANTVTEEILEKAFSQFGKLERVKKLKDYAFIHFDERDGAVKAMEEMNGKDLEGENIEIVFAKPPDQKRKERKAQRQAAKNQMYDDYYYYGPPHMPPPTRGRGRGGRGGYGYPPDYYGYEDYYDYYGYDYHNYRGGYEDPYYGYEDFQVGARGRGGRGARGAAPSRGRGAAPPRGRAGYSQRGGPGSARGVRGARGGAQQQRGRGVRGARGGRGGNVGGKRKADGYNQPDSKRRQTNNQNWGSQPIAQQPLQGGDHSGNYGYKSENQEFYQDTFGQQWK

Assay [10] concerns the target proteins of HEK293T cells transiently overexpressing caspase-6 (Homo sapiens, UniProt P31689).
Assay [11] has as its target proteins of HEK293T cells transiently overexpressing caspase-6 (Homo sapiens, UniProt P14625). Particulars: Comp; protein HSP90B1 P14625.
Setting [12] is: protein PSMA4 (P25789), Exp Comp, analysis C6, p 0.0625, 5 peptides.
[13] abbreviates: protein ASNS (P08243), Exp Comp, analysis C6, p 0.1250, 4 peptides.
Setting [14] is: protein SYNCRIP (O60506), Exp Comp, analysis C6, p 0.0625, 5 peptides.
Setting [15] is: protein DNAJA1 (P31689), Exp Comp, analysis C6, p 0.0625, 5 peptides.

Sequence of proteins of HEK293T cells transiently overexpressing caspase-6 (Homo sapiens, UniProt P31689) (P31689 whole entry): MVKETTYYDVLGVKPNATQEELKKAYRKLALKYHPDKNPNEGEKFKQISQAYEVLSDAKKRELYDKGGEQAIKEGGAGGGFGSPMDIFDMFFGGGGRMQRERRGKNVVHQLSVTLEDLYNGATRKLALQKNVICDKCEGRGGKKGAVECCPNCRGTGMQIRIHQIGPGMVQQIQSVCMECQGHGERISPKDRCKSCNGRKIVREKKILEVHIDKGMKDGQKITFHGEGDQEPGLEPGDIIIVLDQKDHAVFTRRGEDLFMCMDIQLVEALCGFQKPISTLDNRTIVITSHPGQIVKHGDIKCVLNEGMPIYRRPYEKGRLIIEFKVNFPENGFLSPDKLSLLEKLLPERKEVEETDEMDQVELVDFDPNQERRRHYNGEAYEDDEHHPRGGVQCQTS
Sequence of proteins of HEK293T cells transiently overexpressing caspase-6 (Homo sapiens, UniProt P35998) (P35998 whole entry): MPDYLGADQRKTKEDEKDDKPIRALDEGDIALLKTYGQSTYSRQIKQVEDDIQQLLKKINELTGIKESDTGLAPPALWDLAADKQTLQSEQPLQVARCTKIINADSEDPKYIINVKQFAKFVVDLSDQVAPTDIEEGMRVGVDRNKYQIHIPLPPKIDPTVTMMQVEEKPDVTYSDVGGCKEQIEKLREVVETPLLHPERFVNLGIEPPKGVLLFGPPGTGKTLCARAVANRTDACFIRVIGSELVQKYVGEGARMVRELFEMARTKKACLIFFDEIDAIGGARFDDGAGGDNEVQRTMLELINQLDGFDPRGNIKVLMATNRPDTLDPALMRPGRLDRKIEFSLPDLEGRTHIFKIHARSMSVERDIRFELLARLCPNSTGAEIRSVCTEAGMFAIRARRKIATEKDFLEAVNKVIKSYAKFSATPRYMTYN
Sequence of proteins of HEK293T cells transiently overexpressing caspase-6 (Homo sapiens, UniProt P09874) (P09874 whole entry): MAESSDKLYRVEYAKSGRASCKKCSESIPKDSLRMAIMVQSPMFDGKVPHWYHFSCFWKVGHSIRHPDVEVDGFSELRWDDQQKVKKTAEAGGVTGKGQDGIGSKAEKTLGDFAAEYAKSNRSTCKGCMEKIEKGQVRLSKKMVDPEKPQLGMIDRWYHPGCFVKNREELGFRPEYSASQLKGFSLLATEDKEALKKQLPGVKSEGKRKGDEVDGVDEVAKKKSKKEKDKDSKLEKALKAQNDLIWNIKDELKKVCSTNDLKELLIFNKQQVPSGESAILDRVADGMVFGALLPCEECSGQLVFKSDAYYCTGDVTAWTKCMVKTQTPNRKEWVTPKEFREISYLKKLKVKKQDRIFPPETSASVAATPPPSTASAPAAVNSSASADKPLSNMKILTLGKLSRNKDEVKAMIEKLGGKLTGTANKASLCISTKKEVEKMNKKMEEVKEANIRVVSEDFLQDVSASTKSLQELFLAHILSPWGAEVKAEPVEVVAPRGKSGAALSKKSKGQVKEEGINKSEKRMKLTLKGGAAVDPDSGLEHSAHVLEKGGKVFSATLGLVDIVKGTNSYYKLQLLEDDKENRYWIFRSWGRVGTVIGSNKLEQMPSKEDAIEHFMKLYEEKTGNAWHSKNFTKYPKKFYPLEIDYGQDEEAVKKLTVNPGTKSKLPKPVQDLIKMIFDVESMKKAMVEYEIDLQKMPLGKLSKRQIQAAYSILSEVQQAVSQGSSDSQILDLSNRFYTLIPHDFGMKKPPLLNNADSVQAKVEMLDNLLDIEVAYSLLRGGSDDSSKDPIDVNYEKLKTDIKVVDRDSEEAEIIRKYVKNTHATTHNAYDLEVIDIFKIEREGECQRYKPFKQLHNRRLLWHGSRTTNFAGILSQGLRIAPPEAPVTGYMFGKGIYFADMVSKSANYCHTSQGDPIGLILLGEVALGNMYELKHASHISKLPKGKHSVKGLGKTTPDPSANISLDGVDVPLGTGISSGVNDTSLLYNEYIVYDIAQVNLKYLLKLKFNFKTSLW
Sequence of proteins of HEK293T cells transiently overexpressing caspase-6 (Homo sapiens, UniProt P14625) (P14625 22-803): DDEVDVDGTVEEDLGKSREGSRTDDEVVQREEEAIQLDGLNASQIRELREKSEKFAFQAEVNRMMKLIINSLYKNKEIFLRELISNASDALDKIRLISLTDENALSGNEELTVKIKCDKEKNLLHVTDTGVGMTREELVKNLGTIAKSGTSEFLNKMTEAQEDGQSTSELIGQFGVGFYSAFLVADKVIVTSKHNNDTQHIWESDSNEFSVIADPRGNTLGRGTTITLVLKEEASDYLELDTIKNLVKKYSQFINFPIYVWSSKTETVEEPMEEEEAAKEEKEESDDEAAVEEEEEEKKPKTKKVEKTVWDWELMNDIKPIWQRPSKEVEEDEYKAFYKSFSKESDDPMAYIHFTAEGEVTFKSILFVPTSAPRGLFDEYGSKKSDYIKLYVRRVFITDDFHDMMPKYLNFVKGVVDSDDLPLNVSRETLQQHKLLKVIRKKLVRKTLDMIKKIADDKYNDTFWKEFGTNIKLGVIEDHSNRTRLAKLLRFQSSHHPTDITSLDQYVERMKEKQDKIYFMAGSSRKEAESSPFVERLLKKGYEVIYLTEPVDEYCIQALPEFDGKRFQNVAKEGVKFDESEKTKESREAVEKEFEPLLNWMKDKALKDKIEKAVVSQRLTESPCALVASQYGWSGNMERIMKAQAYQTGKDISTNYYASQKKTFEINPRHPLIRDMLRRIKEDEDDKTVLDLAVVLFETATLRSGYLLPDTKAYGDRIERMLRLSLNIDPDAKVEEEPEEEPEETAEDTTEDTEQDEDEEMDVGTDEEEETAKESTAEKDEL
Sequence of proteins of HEK293T cells transiently overexpressing caspase-6 (Homo sapiens, UniProt Q13148) (Q13148 whole entry): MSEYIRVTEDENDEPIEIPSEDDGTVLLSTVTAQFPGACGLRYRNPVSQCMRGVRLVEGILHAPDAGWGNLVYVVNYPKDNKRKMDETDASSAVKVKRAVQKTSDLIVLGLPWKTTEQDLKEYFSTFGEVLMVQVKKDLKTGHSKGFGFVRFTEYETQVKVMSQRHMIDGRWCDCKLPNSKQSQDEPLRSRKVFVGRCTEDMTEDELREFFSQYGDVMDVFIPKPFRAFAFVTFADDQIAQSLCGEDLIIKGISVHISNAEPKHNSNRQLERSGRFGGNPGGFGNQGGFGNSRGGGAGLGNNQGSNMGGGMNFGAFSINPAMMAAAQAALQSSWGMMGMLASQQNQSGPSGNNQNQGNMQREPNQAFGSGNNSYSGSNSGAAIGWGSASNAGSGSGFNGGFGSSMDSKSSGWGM

In the case of `C=CS(=O)(=O)N1C[C@H](C(=O)Nc2ccc(OC(F)(F)F)cc2)C[C@@H](c2ccccc2)C1` [3a], the enrich.exp.med is reported as 0.924 in [1]; 0.8327 in [2]; 0.9624 in assay [3] (Comp, protein PSMA4 P25789); 0.6236 in assay [4]; 0.6484 in assay [5]; 0.8762 in [6]. The enrich.exp.med in assay [7] was determined as 0.678; in [8] (Comp, protein ASNS P08243), 1.12; in [9] (Comp, protein SYNCRIP O60506) it was 1.48; in [10] (Comp, protein DNAJA1 P31689) it was 1.02; in assay [11], 0.7874. For the same compound, the enrich.exp.med.lin in [3] (setting [12]) is 1.949; in assay [8] (setting [13]) it was 2.174; in [9] (setting [14]) it was 2.7903; in assay [10] (setting [15]) it was 2.028. The enrich.exp.med.log2 in assay [3] (setting [12]) is 0.9624; in [8] (setting [13]) it was 1.12; in [9] (setting [14]), 1.48; in assay [10] (setting [15]) it was 1.02.

Source of the values: article PMC10176470, “Engaging a Non-catalytic Cysteine Residue Drives Potent and Selective Inhibition of Caspase-6” (Journal of the American Chemical Society, 2023).
